Like-named read-outs stand apart in the source and are kept apart here.
Tests used:
Assay type in all cases: in vivo
[1] = test system: Yellow Fever Mosquito (Aedes aegypti, AEDSAE); details: for YFM rating: Table ABC / ABC-DP rating
How it was run: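 Compounds from DMSO master plates (4000 ppm stock) diluted in 90:10 water/acetone, then dispensed into six replicate plates and infested with ~1-day-old Aedes aegypti larvae in liver-powder water. Held covered at room temperature for 3 days; each well scored for larval mortality and graded on a rating scale.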

[2] = test system: Beet Armyworm (Spodoptera exigua, LAPHEG); experiment: Bioassays on Beet Armyworm (BAW), 128-well diet tray assay; details: Spodoptera exigua
How it was run: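 Percent larval mortality, averaged across eight wells, scored after five to seven days at 25° C. under 14:10 light-dark. Each well held one to five second instars feeding on diet dosed at 50 μg/cm^2 with compound from 90:10 acetone-water, solvent dried off.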

[3] = test system: Cabbage Looper (Trichoplusia ni, TRIPNI); experiment: Bioassays on Cabbage Looper (CL), 128-well diet tray assay; details: Trichoplusia ni
How it was run: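 Test molecule was dissolved in 90:10 acetone-water, applied to artificial diet at 50 μg/cm^2 and allowed to dry. Second-instar larvae were then added, one to five per well, and trays held at 25° C for five to seven days before mortality was scored and averaged.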

[4] = Beet Armyworm, Table ABC / ABC-DP rating, read-out: BAW rating
[5] = Cabbage Looper, Table ABC / ABC-DP rating, read-out: CL rating
[6] = Yellow Fever Mosquito, rating class
[7] = Beet Armyworm, rating class, read-out: BAW
[8] = Cabbage Looper, rating class, read-out: CL
[9] = Table ABC: Biological Results, species YFM
[10] = Table ABC: Biological Results, species BAW, read-out: BAW
[11] = Table ABC: Biological Results, species CL, read-out: CL

| Structure (SMILES) | YFM rating ([1]; Yellow Fever Mosquito) | pest or weed control at 50 µg/cm2 [2, 4] | pest or weed control at 50 µg/cm2 [3, 5] | YFM [1, 6] | pest or weed control at 50 µg/cm2 [2, 7] | pest or weed control at 50 µg/cm2 [3, 8] | other results |
| --- | --- | --- | --- | --- | --- | --- | --- |
| O=C(NNC(=S)Nc1ccccc1)c1cc(NC(=O)[C@H]2[C@H](c3cc(Cl)cc(Cl)c3)C2(Cl)Cl)ccc1Cl (relative stereo) [F2541, trans-2,2-Dichloro-N-(4-chloro-3-(2-(phenylcarbamothioyl)hydrazine-1-carbonyl)phenyl)-3-(3,5-dichlorophenyl)cyclopropane-1-carboxamide] | A (80–100) | 50 to 100% | 50 to 100% |  |  |  |  |
| CCOCCC(=O)Nc1c(F)ccc(NC(=O)c2cc(NC(=O)[C@H]3[C@H](c4ccc(Cl)c(Cl)c4)C3(Cl)Cl)ccc2Cl)c1F [F1419, 2-Chloro-5-((1R,3R)-2,2-dichloro-3-(3,4-dichlorophenyl)cyclopropane-1-carboxamido)-N-(3-(3-ethoxypropanamido)-2,4-difluorophenyl)benzamide] |  |  |  | A (80–100) | 50 to 100% | 50 to 100% |  |
| CCOC(C)C(=O)Nc1c(F)ccc(NC(=O)c2cc(NC(=O)[C@H]3[C@H](c4cc(Cl)c(Cl)c(Cl)c4)C3(Cl)Cl)ccc2Cl)c1F (stereo partly drawn) [F1645, 2-Chloro-5-((1R,3R)-2,2-dichloro-3-(3,4,5-trichlorophenyl)cyclopropane-1-carboxamido)-N-(3-(2-ethoxypropanamido)-2,4-difluorophenyl)benzamide] |  |  |  | A (80–100) | 50 to 100% | 50 to 100% |  |
| O=C(CCC(F)(F)F)Nc1c(F)ccc(NC(=O)c2cc(NC(=O)[C@H]3[C@H](c4ccc(F)c(C(F)(F)F)c4)C3(Cl)Cl)ccc2Cl)c1F [F1800, 2-Chloro-5-((1R,3R)-2,2-dichloro-3-(4-fluoro-3-(trifluoromethyl)phenyl)cyclopropane-1-carboxamido)-N-(2,4-difluoro-3-(4,4,4-trifluorobutanamido)phenyl)benzamide] | A (80–100) | 50 to 100% | 50 to 100% |  |  |  |  |
| O=C(Nc1ccc(F)c(NC(=O)C2CC2)c1F)c1cc(NC(=O)[C@H]2[C@H](c3ccc(F)c(C(F)(F)F)c3)C2(Cl)Cl)ccc1Cl [F1264, 2-Chloro-N-(3-(cyclopropanecarboxamido)-2,4-difluorophenyl)-5-((1R,3R)-2,2-dichloro-3-(4-fluoro-3-(trifluoromethyl)phenyl)cyclopropane-1-carboxamido)benzamide] |  |  |  |  |  |  | YFM [1, 9]: A (80–100); pest or weed control at 50 µg/cm2 [2, 10]: 50 to 100%; pest or weed control at 50 µg/cm2 [3, 11]: 50 to 100% |
| O=C(NNC(=O)c1cc(NC(=O)[C@H]2[C@H](c3cc(Cl)cc(Cl)c3)C2(Cl)Cl)ccc1Cl)OC(F)(F)F (relative stereo) [F2543, trans-Trifluoromethyl 2-(2-chloro-5-(2,2-dichloro-3-(3,5-dichlorophenyl)cyclopropane-1-carboxamido)benzoyl)hydrazine-1-carboxylate] | A (80–100) | 50 to 100% | 50 to 100% |  |  |  |  |
| Nc1c(F)ccc(NC(=O)c2cc(NC(=O)[C@H]3[C@H](c4cc(Cl)cc(C(F)(F)F)c4)C3(Cl)Cl)ccc2Cl)c1F (relative stereo) [F1127, trans-N-(3-Amino-2,4-difluorophenyl)-2-chloro-5-(2,2-dichloro-3-(3-chloro-5-(trifluoromethyl)phenyl)cyclopropane-1-carboxamido)benzamide] |  |  |  |  |  |  | YFM [1, 9]: A (80–100); pest or weed control at 50 µg/cm2 [2, 10]: 50 to 100%; pest or weed control at 50 µg/cm2 [3, 11]: 50 to 100% |
| Nc1c(F)ccc(NC(=O)c2cc(NC(=O)[C@H]3[C@H](c4ccc(F)c(Cl)c4F)C3(Cl)Cl)ccc2Cl)c1F (relative stereo) [F1049, trans-N-(3-Amino-2,4-difluorophenyl)-2-chloro-5-(2,2-dichloro-3-(3-chloro-2,4-difluorophenyl)cyclopropane-1-carboxamido)benzamide] |  |  |  |  |  |  | YFM [1, 9]: A (80–100); pest or weed control at 50 µg/cm2 [2, 10]: 50 to 100%; pest or weed control at 50 µg/cm2 [3, 11]: 50 to 100% |
| C=C(F)C(=O)Nc1c(F)ccc(NC(=O)c2cc(NC(=O)[C@H]3[C@H](c4ccc(F)c(C(F)(F)F)c4)C3(Cl)Cl)ccc2Cl)c1F [F1870, 2-Chloro-5-((1R,3R)-2,2-dichloro-3-(4-fluoro-3-(trifluoromethyl)phenyl)cyclopropane-1-carboxamido)-N-(2,4-difluoro-3-(2-fluoroacrylamido)phenyl)benzamide] | A (80–100) | 50 to 100% | 50 to 100% |  |  |  |  |
| Cc1c(Cl)cc(NC(=O)[C@H]2[C@H](c3ccc(F)c(Cl)c3)C2(Cl)Cl)cc1C(=O)Nc1ccccc1 (relative stereo) [F1188, trans-3-Chloro-5-(2,2-dichloro-3-(3-chloro-4-fluorophenyl)cyclopropane-1-carboxamido)-2-methyl-N-phenylbenzamide] |  |  |  |  |  |  | YFM [1, 9]: A (80–100); pest or weed control at 50 µg/cm2 [2, 10]: 50 to 100%; pest or weed control at 50 µg/cm2 [3, 11]: 50 to 100% |
| N#CCC(=O)N(CCF)c1c(F)ccc(NC(=O)c2cc(NC(=O)[C@H]3[C@H](c4ccc(F)c(C(F)(F)F)c4)C3(Cl)Cl)ccc2Cl)c1F [F1823, 2-Chloro-N-(3-(2-cyano-N-(2-fluoroethyl)acetamido)-2,4-difluorophenyl)-5-((1R,3R)-2,2-dichloro-3-(4-fluoro-3-(trifluoromethyl)phenyl)cyclopropane-1-carboxamido)benzamide] | A (80–100) | 50 to 100% | 50 to 100% |  |  |  |  |
| O=C(Nc1ccc(F)c(NC(=O)C(F)F)c1F)c1cc(NC(=O)[C@H]2[C@H](c3cccc(C(F)(F)F)c3)C2(Cl)Cl)ccc1Cl [F1675, 2-Chloro-5-((1R,3R)-2,2-dichloro-3-(3-(trifluoromethyl)phenyl)cyclopropane-1-carboxamido)-N-(3-(2,2-difluoroacetamido)-2,4-difluorophenyl)benzamide] |  |  |  | A (80–100) | 50 to 100% | 50 to 100% |  |
| O=C(Nc1ccc(F)c(NC(=O)C(F)(F)Cl)c1F)c1cc(NC(=O)[C@H]2[C@H](c3cc(Cl)c(Cl)c(Cl)c3)C2(Cl)Cl)ccc1Cl [F1686, 2-Chloro-N-(3-(2-chloro-2,2-difluoroacetamido)-2,4-difluorophenyl)-5-((1R,3R)-2,2-dichloro-3-(3,4,5-trichlorophenyl)cyclopropane-1-carboxamido)benzamide] |  |  |  | A (80–100) | 50 to 100% | 50 to 100% |  |
| CC(OC(F)(F)F)C(=O)Nc1c(F)ccc(NC(=O)c2cc(NC(=O)[C@H]3[C@H](c4ccc(Cl)c(Cl)c4)C3(Cl)Cl)ccc2Cl)c1F (stereo partly drawn) [F1767, 2-Chloro-5-((1R,3R)-2,2-dichloro-3-(3,4-dichlorophenyl)cyclopropane-1-carboxamido)-N-(2,4-difluoro-3-(2-(trifluoromethoxy)propanamido)phenyl)benzamide] | A (80–100) | 50 to 100% | 50 to 100% |  |  |  |  |
| CC(OC(F)(F)F)C(=O)Nc1c(F)ccc(NC(=O)c2cc(NC(=O)[C@H]3[C@H](c4ccc(F)c(Cl)c4)C3(Cl)Cl)ccc2Cl)c1F (stereo partly drawn) [F1769, 2-Chloro-5-((1R,3R)-2,2-dichloro-3-(3-chloro-4-fluorophenyl)cyclopropane-1-carboxamido)-N-(2,4-difluoro-3-(2-(trifluoromethoxy)propanamido)phenyl)benzamide] | A (80–100) | 50 to 100% | 50 to 100% |  |  |  |  |
| O=C(Nc1ccc(F)c(NC(=O)C(F)(F)Cl)c1F)c1cc(NC(=O)[C@H]2[C@H](c3ccc(Cl)c(C(F)(F)F)c3)C2(Cl)Cl)ccc1Cl [F1719, 2-Chloro-N-(3-(2-chloro-2,2-difluoroacetamido)-2,4-difluorophenyl)-5-((1R,3R)-2,2-dichloro-3-(4-chloro-3-(trifluoromethyl)phenyl)cyclopropane-1-carboxamido)benzamide] |  |  |  | A (80–100) | 50 to 100% | 50 to 100% |  |
| CC(=NNC(=O)c1cc(NC(=O)[C@H]2[C@H](c3cc(Cl)cc(Cl)c3)C2(Cl)Cl)ccc1Cl)c1ccccc1 (relative stereo) [F3005, trans-2,2-Dichloro-N-(4-chloro-3-(2-(1-phenylethylidene)hydrazine-1-carbonyl)phenyl)-3-(3,5-dichlorophenyl)cyclopropane-1-carboxamide] | A (80–100) | 50 to 100% | 50 to 100% |  |  |  | YFM % Control (or Mortality) rating ([1]; about 1 day-old larvae, 4000 ppm master solution diluted with 90:10 water/acetone, 15 μL per well plus 220 μL larval mixture, 3 days, mortality): A (80–100); mortality at 50 µg/cm2 ([2]; 168 h, second instar larvae, 50 μg/cm^2 of test molecule on artificial diet, 25° C., five to seven days, average of eight wells, read-out: BAW % Control (or Mortality) rating): 50 to 100%; mortality at 50 µg/cm2 ([3]; 168 h, second instar larvae, 50 μg/cm^2 of test molecule on artificial diet, 25° C., five to seven days, average of eight wells, read-out: CL % Control (or Mortality) rating): 50 to 100% |
| O=C(Nc1ccc(F)c(NC(=O)C(F)F)c1F)c1cc(NC(=O)[C@H]2[C@H](c3ccc(Cl)c(Cl)c3)C2(Cl)Cl)cc(F)c1F [F1443, 5-((1R,3R)-2,2-Dichloro-3-(3,4-dichlorophenyl)cyclopropane-1-carboxamido)-N-(3-(2,2-difluoroacetamido)-2,4-difluorophenyl)-2,3-difluorobenzamide] |  |  |  | A (80–100) | 50 to 100% | 50 to 100% |  |
